# Results: ChEMBL document CHEMBL1141625, “Potent, selective MCH-1 receptor antagonists” (Bioorg Med Chem Lett, 2008)
# Key:
# [1] = biological target: Sodium-dependent dopamine transporter (Homo sapiens) (UniProt Q01959); assay: Inhibition of DAT at 10 uM
# [2] = biological target: T1, Melanin-concentrating hormone receptor 1 (Homo sapiens, UniProt Q99705); assay: Binding affinity to MCHR1
# [3] = biological target: T1, Melanin-concentrating hormone receptor 1; assay: Antagonist activity at MCHR1 by cAMP assay; type: functional
# [4] = biological target: T2, Alpha-2A adrenergic receptor (Homo sapiens) (UniProt P08913); assay: Inhibition of adrenergic alpha2A receptor at 10 uM
# T2 sequence (whole entry): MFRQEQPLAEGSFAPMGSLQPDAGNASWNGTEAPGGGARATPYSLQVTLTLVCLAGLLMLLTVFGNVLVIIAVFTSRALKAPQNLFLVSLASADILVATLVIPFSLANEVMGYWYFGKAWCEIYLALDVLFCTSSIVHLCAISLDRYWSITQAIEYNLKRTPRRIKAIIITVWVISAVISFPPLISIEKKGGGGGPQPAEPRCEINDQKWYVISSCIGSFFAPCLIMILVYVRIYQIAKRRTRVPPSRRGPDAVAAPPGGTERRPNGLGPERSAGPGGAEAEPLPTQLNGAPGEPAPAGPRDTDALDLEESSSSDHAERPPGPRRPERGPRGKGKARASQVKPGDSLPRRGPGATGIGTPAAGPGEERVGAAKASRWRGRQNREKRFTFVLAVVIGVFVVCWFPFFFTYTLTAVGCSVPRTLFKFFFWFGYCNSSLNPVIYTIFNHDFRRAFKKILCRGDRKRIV
# [5] = biological target: T3, Muscarinic acetylcholine receptor M2 (Homo sapiens) (UniProt P08172); assay: Inhibition of muscarinic M2 receptor at 10 uM
# T3 sequence (whole entry): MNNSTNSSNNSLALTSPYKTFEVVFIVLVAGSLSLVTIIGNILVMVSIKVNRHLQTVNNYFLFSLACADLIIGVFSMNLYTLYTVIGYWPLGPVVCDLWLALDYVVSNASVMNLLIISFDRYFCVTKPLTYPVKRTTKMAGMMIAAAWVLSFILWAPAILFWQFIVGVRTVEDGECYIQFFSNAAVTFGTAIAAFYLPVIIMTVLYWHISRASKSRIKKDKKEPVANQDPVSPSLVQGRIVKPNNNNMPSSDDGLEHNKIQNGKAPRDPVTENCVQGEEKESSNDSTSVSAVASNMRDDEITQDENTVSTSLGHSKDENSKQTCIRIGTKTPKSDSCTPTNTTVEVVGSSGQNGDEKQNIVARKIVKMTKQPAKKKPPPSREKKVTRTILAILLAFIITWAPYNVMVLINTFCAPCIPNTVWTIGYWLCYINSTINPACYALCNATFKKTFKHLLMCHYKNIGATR
# [6] = biological target: T4, 5-hydroxytryptamine receptor 2C (Homo sapiens) (UniProt P28335); assay: Inhibition of 5HT2C receptor at 10 uM
# T4 sequence (whole entry): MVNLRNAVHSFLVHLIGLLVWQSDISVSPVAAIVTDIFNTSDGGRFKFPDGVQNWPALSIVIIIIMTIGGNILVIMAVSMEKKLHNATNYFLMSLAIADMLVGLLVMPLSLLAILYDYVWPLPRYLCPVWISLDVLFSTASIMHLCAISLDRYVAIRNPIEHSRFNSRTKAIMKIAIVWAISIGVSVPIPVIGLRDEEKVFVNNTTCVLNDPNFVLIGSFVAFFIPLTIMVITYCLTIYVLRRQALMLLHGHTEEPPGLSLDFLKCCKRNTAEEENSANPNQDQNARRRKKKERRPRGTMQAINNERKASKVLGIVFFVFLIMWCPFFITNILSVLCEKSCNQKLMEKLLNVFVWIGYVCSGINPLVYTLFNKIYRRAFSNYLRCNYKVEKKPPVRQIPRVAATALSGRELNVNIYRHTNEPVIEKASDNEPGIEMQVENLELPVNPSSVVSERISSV
# [7] = biological target: Somatostatin receptor type 5 (Homo sapiens) (UniProt P35346); assay: Inhibition of SST5 receptor at 10 uM
# Somatostatin receptor type 5 (Homo sapiens), sequence (P35346 whole entry): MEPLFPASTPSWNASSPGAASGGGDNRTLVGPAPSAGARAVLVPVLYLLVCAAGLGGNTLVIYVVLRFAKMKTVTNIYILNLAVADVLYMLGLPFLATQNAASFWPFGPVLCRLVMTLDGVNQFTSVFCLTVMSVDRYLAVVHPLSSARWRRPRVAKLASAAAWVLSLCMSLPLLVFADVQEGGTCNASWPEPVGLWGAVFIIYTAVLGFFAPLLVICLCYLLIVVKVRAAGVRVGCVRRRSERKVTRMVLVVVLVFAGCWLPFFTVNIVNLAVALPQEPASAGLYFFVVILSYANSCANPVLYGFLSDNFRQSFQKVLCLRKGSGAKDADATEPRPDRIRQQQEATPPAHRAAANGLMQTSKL
# [8] = biological target: Sodium-dependent noradrenaline transporter (Homo sapiens) (UniProt P23975); assay: Inhibition of NET at 10 uM
# Sodium-dependent noradrenaline transporter (Homo sapiens), sequence (P23975 whole entry): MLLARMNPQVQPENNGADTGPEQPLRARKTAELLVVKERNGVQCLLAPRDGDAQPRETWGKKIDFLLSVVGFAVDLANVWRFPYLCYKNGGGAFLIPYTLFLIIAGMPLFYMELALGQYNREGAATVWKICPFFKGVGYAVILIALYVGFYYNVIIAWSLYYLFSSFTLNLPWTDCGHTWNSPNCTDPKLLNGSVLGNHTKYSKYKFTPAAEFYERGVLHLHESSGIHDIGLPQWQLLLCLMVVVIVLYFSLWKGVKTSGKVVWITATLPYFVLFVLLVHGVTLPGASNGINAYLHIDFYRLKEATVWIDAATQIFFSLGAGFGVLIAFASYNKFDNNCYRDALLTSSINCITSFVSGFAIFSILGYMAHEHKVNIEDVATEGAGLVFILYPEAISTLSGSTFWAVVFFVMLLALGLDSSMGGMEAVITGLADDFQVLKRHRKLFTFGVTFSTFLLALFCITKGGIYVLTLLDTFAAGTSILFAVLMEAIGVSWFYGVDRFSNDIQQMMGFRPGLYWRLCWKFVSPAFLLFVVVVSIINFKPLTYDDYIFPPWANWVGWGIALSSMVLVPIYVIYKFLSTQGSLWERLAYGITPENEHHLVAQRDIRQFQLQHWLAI
# [9] = biological target: Sodium-dependent serotonin transporter (Homo sapiens) (UniProt P31645); assay: Inhibition of SERT at 10 uM
# Sodium-dependent serotonin transporter (Homo sapiens), sequence (P31645 whole entry, looked up): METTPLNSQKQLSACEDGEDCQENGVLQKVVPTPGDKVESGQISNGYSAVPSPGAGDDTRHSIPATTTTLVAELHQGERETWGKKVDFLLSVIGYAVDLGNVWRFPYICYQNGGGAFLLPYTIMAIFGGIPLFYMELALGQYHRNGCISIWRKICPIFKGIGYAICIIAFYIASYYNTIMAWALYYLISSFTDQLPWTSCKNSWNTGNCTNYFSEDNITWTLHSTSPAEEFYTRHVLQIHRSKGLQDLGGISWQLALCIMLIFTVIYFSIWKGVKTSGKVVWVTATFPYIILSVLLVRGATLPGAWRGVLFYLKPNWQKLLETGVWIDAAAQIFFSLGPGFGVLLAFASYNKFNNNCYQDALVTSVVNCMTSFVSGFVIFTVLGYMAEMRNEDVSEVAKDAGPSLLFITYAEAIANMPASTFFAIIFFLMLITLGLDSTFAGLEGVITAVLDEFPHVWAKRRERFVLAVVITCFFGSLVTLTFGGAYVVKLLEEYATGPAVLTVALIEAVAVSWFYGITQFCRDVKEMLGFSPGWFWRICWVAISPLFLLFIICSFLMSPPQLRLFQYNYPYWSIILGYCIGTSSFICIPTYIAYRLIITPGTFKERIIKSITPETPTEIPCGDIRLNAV
# [10] = biological target: D(3) dopamine receptor (Homo sapiens) (UniProt P35462); assay: Inhibition of dopamine D3 receptor at 10 uM
# D(3) dopamine receptor (Homo sapiens), sequence (P35462 whole entry): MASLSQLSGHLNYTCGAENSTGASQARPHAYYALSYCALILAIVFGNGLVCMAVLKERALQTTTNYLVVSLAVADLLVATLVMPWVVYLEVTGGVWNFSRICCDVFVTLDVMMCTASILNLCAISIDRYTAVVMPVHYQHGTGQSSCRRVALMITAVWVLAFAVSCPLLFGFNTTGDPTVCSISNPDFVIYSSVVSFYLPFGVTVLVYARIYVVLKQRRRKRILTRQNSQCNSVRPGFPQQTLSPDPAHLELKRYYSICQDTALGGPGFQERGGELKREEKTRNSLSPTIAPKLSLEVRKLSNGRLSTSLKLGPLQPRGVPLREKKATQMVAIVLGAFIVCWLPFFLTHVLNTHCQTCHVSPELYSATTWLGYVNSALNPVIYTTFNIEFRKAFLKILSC
# [11] = biological target: T5, 5-hydroxytryptamine receptor 1A (Homo sapiens) (UniProt P08908); assay: Inhibition of 5HT1A receptor at 10 uM
# T5 sequence (whole entry): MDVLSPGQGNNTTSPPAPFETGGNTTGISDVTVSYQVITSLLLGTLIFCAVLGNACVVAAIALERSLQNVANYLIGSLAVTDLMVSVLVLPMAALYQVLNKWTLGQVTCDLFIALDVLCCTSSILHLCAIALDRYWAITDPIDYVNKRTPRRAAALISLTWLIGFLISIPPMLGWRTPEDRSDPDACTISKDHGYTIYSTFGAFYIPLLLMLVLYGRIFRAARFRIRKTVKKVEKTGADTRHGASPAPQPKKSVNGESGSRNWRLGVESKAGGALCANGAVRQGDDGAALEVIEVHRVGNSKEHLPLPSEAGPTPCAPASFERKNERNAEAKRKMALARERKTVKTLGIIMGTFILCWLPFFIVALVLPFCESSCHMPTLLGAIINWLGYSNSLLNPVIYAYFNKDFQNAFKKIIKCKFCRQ
# [12] = AUC in Sprague-Dawley rat plasma at 5 mg/kg, iv or 30 mg/kg, po; type: ADME, organism-based
# [13] = Cmax in Sprague-Dawley rat at 5 mg/kg, iv or 30 mg/kg, po; type: ADME, organism-based; conditions: in vivo
# [14] = Clearance in Sprague-Dawley rat at 5 mg/kg, iv or 30 mg/kg, po; type: ADME, organism-based; conditions: in vivo
# [15] = Half life in Sprague-Dawley rat at 5 mg/kg, iv or 30 mg/kg, po; type: ADME, organism-based; conditions: in vivo
# [16] = Volume of distribution at steady state in Sprague-Dawley rat at 5 mg/kg, iv or 30 mg/kg, po; type: ADME, organism-based; conditions: in vivo, read-out: Vdss
# [17] = Oral bioavailability in Sprague-Dawley rat at 30 mg/kg; type: ADME, organism-based; conditions: in vivo
# [18] = Ratio of drug level in brain to plasma in Sprague-Dawley rat after 5 mins; type: ADME; conditions: brain and plasma, read-out: BPR
# Rattus norvegicus [19] = assay: Reduction of food intake in high fat diet fed Sprague-Dawley rat at 30 mg/kg, po bid; type: functional; set-up: scale not given: the % may be the effect or the level left
# Rattus norvegicus [20] = assay: Reduction of body weight in high fat diet fed Sprague-Dawley rat at 30 mg/kg, po bid after 12 weeks; type: functional; set-up: scale not given: the % may be the effect or the level left
# Rattus norvegicus [21] = species on record: Rattus norvegicus; assay: Toxicity in high fat diet fed Sprague-Dawley rat after 12 weeks; type: organism-based; conditions: in vivo, 2016 h
# T1 sequence (Q99705 whole entry): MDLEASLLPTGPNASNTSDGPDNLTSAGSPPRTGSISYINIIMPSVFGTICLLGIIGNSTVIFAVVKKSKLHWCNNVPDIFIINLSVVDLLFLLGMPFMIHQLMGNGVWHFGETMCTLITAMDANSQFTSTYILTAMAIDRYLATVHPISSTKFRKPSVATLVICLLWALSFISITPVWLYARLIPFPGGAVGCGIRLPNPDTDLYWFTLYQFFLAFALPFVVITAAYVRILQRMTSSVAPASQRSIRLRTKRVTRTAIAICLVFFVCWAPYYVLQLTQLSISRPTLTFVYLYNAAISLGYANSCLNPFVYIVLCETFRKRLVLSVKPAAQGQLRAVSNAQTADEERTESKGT
# Sodium-dependent dopamine transporter (Homo sapiens), sequence (Q01959 whole entry): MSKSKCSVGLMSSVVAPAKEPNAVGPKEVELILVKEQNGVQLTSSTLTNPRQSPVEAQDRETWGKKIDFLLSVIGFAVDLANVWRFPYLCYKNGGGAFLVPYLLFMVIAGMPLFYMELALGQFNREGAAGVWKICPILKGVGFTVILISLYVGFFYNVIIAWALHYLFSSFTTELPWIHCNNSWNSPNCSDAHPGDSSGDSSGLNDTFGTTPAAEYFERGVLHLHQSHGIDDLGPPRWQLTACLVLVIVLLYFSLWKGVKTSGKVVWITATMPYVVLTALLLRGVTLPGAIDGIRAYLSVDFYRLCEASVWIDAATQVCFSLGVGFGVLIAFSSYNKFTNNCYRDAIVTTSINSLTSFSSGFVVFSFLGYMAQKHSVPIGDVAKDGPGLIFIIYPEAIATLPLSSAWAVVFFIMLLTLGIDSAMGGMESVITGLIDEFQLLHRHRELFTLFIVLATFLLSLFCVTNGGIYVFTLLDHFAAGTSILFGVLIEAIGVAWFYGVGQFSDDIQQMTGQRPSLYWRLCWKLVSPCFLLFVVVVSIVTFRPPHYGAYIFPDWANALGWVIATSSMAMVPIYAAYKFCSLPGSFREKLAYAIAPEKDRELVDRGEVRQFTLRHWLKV
Structure (SMILES),inhibition [1],Ki [2],EC50 [3],Efficacy [3],inhibition [4],inhibition [5],inhibition [6],inhibition [7],inhibition [8],inhibition [9],inhibition [10],inhibition [11],other results
Cc1ccc2c(c1)nc(C)n2C1CCN(CCCc2cccc(NC(=O)C(C)C)c2)CC1,23%,25 nM,175 nM,96%,37%,18%,4%,13%,57%,83%,–,–,–
CO[C@H]1CN(CCCc2cccc(NC(=O)C3CC3)c2)CC[C@@H]1n1c(C)nc2cc(C)ccc21,32%,5.2 nM,20 nM,82%,15%,11%,–,16%,61%,67%,52%,–,–
CO[C@@H]1CN(C[C@H]2Cc3ccc(C#N)cc3C2)CC[C@H]1n1c(C(C)(C)O)nc2cc(C)ccc21,-6%,3 nM,17 nM,85%,12%,3%,–,23%,12%,6%,22%,14%,AUC [12]: 4730 ng·h/mL; Cmax [13]: 1300 ng/mL; clearance [14]: 49.5 mL/min/kg; half-life [15]: 1.9 h; Vd [16]: 3.6 L/kg; bioavailability [17]: 47%; Kp at 5 min [18]: 0.9; Activity (Rattus norvegicus [19]): 28%; Activity (Rattus norvegicus [20]): -0.7%; Activity (Rattus norvegicus [21]): Non-toxic
CO[C@@H]1CN(C[C@H]2Cc3ccc(Br)cc3C2)CC[C@H]1n1c(C(C)(C)O)nc2cc(C)ccc21,68%,10 nM,30 nM,98%,34%,-8%,14%,–,77%,28%,79%,17%,–
CO[C@@H]1CN(C[C@H]2Cc3ccc(Br)cc3C2)CC[C@H]1n1c(C)nc2cc(C)ccc21,80%,5 nM,20 nM,92%,81%,48%,–,54%,69%,59%,84%,31%,–
CO[C@@H]1CN(C[C@H]2Cc3ccc(C#N)cc3C2)CC[C@H]1n1c(C(C)(C)O)nc2cc(C)c(F)cc21,–,0.5 nM,–,–,–,–,–,–,–,–,–,–,–
CO[C@@H]1CN(CC2Cc3ccccc3C2)CC[C@H]1n1c(C)nc2cc(C)ccc21,8%,47 nM,69 nM,90%,33%,6%,-8%,-2%,24%,14%,40%,63%,–
CO[C@@H]1CN(C[C@@H]2Cc3ccc(NC(=O)C(C)C)cc3C2)CC[C@H]1n1c(C)nc2cc(C)ccc21,10%,31 nM,40 nM,74%,7%,3%,3%,–,1%,32%,–,–,AUC [12]: 8520 ng·h/mL; Cmax [13]: 1280 ng/mL; clearance [14]: 36.5 mL/min/kg; half-life [15]: 2.5 h; Vd [16]: 14 L/kg; bioavailability [17]: 61%; Kp at 5 min [18]: 0.06
COC(=O)Nc1ccc2c(c1)C[C@@H](CN1CC[C@@H](n3c(C)nc4cc(C)ccc43)[C@H](OC)C1)C2,65%,20 nM,20 nM,81%,14%,22%,8%,10%,64%,95%,28%,29%,–
